Publication PMC10002984, “Dual PTP1B/TC-PTP Inhibitors: Biological Evaluation of 3-(Hydroxymethyl)cinnoline-4(1H)-Ones” (International Journal of Molecular Sciences, 2023)

How the values were obtained:
[1] = target: T1, human recombinant TC-PTP protein (Homo sapiens, UniProt P17706); assay: Phosphatase activity assay with DiFMUP, TC-PTP inhibition; type: biochemical; settings: DiFMUP 35 µM, 80 ng/mL TC-PTP, compounds 0.1–80 μM; M ± SEM (n = 24); read-out: IC50 for the inhibitory effect on TC-PTP activity
T1 construct: purchased Sigma-Aldrich SRP0218
T1 sequence (P17706 1-415): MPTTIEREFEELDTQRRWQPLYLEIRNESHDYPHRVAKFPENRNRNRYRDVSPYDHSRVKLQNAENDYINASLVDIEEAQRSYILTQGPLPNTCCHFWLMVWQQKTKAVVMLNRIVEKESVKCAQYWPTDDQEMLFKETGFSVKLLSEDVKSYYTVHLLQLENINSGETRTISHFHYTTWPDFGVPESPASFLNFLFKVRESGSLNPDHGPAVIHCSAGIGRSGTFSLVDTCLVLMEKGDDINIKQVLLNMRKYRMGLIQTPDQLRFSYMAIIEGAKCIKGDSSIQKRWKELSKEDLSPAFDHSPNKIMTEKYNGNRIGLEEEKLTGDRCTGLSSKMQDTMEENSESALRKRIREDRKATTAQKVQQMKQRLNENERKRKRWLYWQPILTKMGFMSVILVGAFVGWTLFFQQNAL
Method: The measurement of the activity of the phosphatases PTP1B and TC-PTP and their inhibition was carried out using 6,8-difluoro-4methylumbelliferyl phosphate (DiFMUP), as previously described. The stock solution of recombinant human PTP1B protein (#ab51277, Abcam, Cambridge, UK), at a concentration of 1 µg/µL, was prepared in 25 mM Tris–HCl (pH 7.5), 20% glycerol, 2 mM β-mercaptoethanol, 1 mm EDTA, and 1 mM DTT, and stored at −20 °C. Active human recombinant TC-PTP protein was purchased from Sigma-Aldrich (#SRP0218, Saint Louis, MO, USA) as the aqueous buffer solution at a concentration of 2.9 mg/mL, and aliquots were stored at −80 °C. The fluorogenic substrate DiFMUP (#D6567, Molecular Probes, Thermo Fisher Scientific, Waltham, MA, USA) was dissolved at a concentration of 10 mM in N,N-dimethylformamide and stored in aliquots at −20 °C. The 6,8-difluoro-7-hydroxy-4-methylcoumarin (DiFMU, #D6566, Molecular Probes, Thermo Fisher Scientific, Waltham, MA, USA) was used as a reference fluorescent standard. For the IC50 determination, the assay was carried out in black flat bottom 96-well plates using a reaction volume of 100 µL. The phosphatases (PTP1B or TC-PTP) were preincubated with the tested compounds (0.1–80 µM) in 50 mM HEPES (pH 6.9), 100 mM NaCl, 1 mM EDTA, 2 mM DTT, 0.1 mg/mL BSA for 5 min at 37 °C. The following concentrations of the compounds were studied: 0.1, 0.2, 0.5, 1, 2, 5, 10, 20, 40, and 80 μM. The reactions were initiated by the addition of the fluorogenic substrate DiFMUP and diluted in the assay buffer. Progress curves for hydrolysis reaction were obtained with 25 µM of DiFMUP for 80 ng/mL PTP1B, and 35 µM of DiFMUP for 80 ng/mL TC-PTP. Fluorescence excitation of hydrolyzed DiFMUP and the fluorescent standard DiFMU was monitored at 355 nm and emission was detected at 460 nm for 6–10 min at 30 s intervals in a Fluoroskan Ascent FL microplate reader (Thermo Electron Corporation, Vantaa, Finland). Initial velocities of the reactions were used to calculate the IC50 values using GraphPad Prism.
The data on food intake, body weight, and biochemical parameters in rats, as well as the PCR data, were analyzed using the IBM SPSS Statistics 22 software (“IBM”, Armonk, NY, USA), and the results are presented as mean ± standard error of the mean (M ± SEM). All differences are considered significant at p < 0.05. The calculation of the IC50 values of the studied inhibitors for the initial velocities of enzymatic reactions (PTP1B, TC-PTP) was carried out using the nonlinear regression analysis with GraphPad Prism 8 (“GraphPad Software, Inc.”, Boston, MA, USA). The statistical analysis was carried out using the Wilcoxon test for pairwise comparison and Dunn’s test for multiple comparisons.

[2] = test system: leptin receptor gene (LepR); assay: Gene expression in the liver of obese rats (qPCR), leptin receptor gene; type: in vivo, rat; settings: five-day treatment, difference with Ob group not significant
Method: Further, six groups were formed: control (Con, n = 10), obesity (Ob, n = 10), obese rats with five-day treatment with compounds 1 (Ob + 1, n = 5), 2 (Ob + 2, n = 5), 3 (Ob + 3, n = 10), and 4 (Ob + 4, n = 10). All compounds were administered in DMSO (300 µL) at a daily dose of 7 mg/kg (1 and 2), 8 mg/kg (3), and 10 mg/kg (4) (i.p.), based on the results of the preliminary experiments. The used doses of compounds 1–4, in terms of the number of moles of each compound per kg of animal body weight, were equivalent. Control and obese rats received DMSO in the same volumes (300 µL), instead of the tested compounds. During the five days of the experiment, all animals were transferred to standard food and had free access to food and drinking water. […]
The total RNA was isolated from the liver samples of rats using the “ExtractRNA Reagent” (Evrogen, Moscow, Russia), and the samples containing 1 μg of RNA were transcribed to cDNA using the random oligodeoxynucleotide primers and the “MMLV RT kit” (Evrogen, Russia). […] The amplified signals were detected using the “Applied Biosystems® 7500 Real-Time PCR System” (Life Technologies, Carlsbad, CA, USA, Thermo Fisher Scientific Inc., USA). […] The obtained data were calculated with the delta–delta Ct method and expressed as a fold expression, relative to the corresponding control. […]

IC50 [1] [µM]	expression of the gene encoding the leptin receptor in the liver [2]	SMILES
26.5 ± 4.66	slight decrease	O=c1c(CO)n[nH]c2ccc(Br)cc12 [Compound 4, 6-Bromo-3-(hydroxymethyl)cinnolin-4(1H)-one]
2.98 ± 0.76	slight decrease	O=c1c(CO)n[nH]c2ccc(Cl)cc12 [Compound 3, 6-Chloro-3-(hydroxymethyl)cinnolin-4(1H)-one]
18.9 ± 2.06		O=c1c(CO)n[nH]c2ccccc12 [Compound 1]
